{"source": "patent US20260284166A1", "about": "“NOVEL TUMOR ANTIGENS FOR MELANOMA AND USES THEREOF” (UNIVERSITÉ DE MONTRÉAL, priority 2023, published 2026)", "note": "“Also recorded” adds a separate entry of the source."}
{"system": "CD8+ T cells from healthy donor PBMCs", "assay": "Functional expansion of specific T cells (FEST) assay", "type": "cell-based, human", "conditions": "in vitro stimulation of healthy donor T cells with 1 μg/mL peptide, harvested day 20; TCR Vβ CDR3 sequencing of CD8+ cells", "text": "aeTSA selection for Immunogenicity assay. Melanoma aeTSAs to be tested in T cell-based immunogenicity assays were selected based on the following criteria: 1) complete loss of expression (RPHM) on-therapy in at least one responder from the Riaz et al.^8 cohort capable to present the respective aeTSAs (at least one HLA allele with rank elution <2% in NetMHCpan4.1b^5), 2) elevated mean expression in TCGA-SKCM, 3) the HLA allotype presenting the aeTSA (HLA-A*02:01 or HLA-B*68:01 shared by the melanoma samples and PBMCs donors), 4) the aeTSA biotype (25% canonical, 75% non-canonical), 5) novel MAP status.\nT cells were cultured as previously described^9, with minor modifications. Briefly, on day 0, thawed PBMCs from D36 (Miltenyi Biotec) were T cell-enriched using the Human Pan T cell isolation kit (Miltenyi Biotec). T cells were resuspended at 2×10^6/mL in AIM V media supplemented with 50 μg/mL gentamicin (ThermoFisher Scientific) and 1% HEPES. The T cell-negative fraction was irradiated at 30 Gγ, washed, and resuspended at 2×10^6/mL in AIM V media supplemented with 50 μg/mL gentamicin and 1% HEPES. 2.5 ml per well of both T cells and irradiated T cell-depleted cells were added to a 12-well plate, along with each peptide (GLS Biochem) (1 μg/mL final concentration) or without peptide. Cells were cultured for 10 days at 37° C., 5% CO2. On day 3 and 7, half the culture media was replaced with fresh culture media containing 100 IU/mL IL-2, 50 ng/mL IL-7, and 50 ng/mL IL-15 (day 3) and 200 IU/mL IL-2, 50 ng/mL IL-7, and 50 ng/mL IL-15 (day 7). On day 10, thawed PBMCs from the same donor were used to generate a new batch of T cell-depleted cells. These cells were irradiated at 30 Gγ and loaded with […] of relevant peptide or without peptide during 2 h at 37° C. These cells were washed and added to cultures at a 1:1 T cell:non-T cell ratio. […] On day 20, cells were harvested to perform FEST assays.\nFor FEST assays, CD8^+ cells were further isolated using the Human CD8^+ T Cell Isolation Kit (Miltenyi Biotec). […]"}
{"sequence": "AAAGVSSTK [SEQ ID NO: 73]", "Amino acid sequences of the CDR3 of the TCRβ chain of the clonotypes expanded": "CASSPTNTYEQYF; also recorded: CASHPAGADMNTEAFF; also recorded: CASSLAGRETQYF; also recorded: CASSVWGEPYNEQFF; also recorded: CASSRTDSYEQYF; also recorded: CASSLQGANGYTF"}
{"sequence": "GVDDLVFRR [SEQ ID NO: 64]", "Amino acid sequences of the CDR3 of the TCRβ chain of the clonotypes expanded": "CASSPDPEGGEQYF; also recorded: CASSLQGHGYTF; also recorded: CASNVARTGGDISGDYEQYF; also recorded: CASSLGLAGSYEQYF; also recorded: CASSDSSYNSPLHF"}
{"sequence": "HTLPALSRR [SEQ ID NO: 66]", "Amino acid sequences of the CDR3 of the TCRβ chain of the clonotypes expanded": "CASSFQGLNTEAFF (SEQ ID NO: 1103); also recorded: CASSPGQGNEKLFF (SEQ ID NO: 1104); also recorded: CASSLGSGYEQYF (SEQ ID NO: 1105); also recorded: CASSLGLYNEQFF (SEQ ID NO: 1106); also recorded: CASSPGTDYNEQFF (SEQ ID NO: 1107); also recorded: CATRPGAIRGYTF (SEQ ID NO: 1108); also recorded: CASSLIGGADTEAFF (SEQ ID NO: 1109)"}
